Source: PMC2994747, “Molecular Characterization of c-Abl/c-Src Kinase Inhibitors Targeted against Murine Tumour Progenitor Cells that Express Stem Cell Markers” (PLoS ONE, 2010)
Where two headings read alike, the source gives them in different places.

Key:
[1] = test system: GammaD12; experiment: Cell cycle analysis by flow cytometry; assay type: cell-based, mouse; settings: IC50 concentration, 96 h
Protocol: (§1) CycleTEST™ PLUS DNA Reagent Kit (Becton Dickinson GmbH, Heidelberg, Germany) for cell cycle analysis was used, according to the instructions of the manufacturer. Briefly, the cells were harvested with trypsin, washed with PBS, and resuspended in CycleTEST Buffer. The cells were centrifuged and resuspended in solution A. After incubation for 10 min at room temperature, solution B was added and incubated. After adding solution C, the samples were incubated at 4°C protected from light. The samples were stored on ice and protected from light until analysis by FACScan flow cytometer (Becton Dickinson GmbH, Heidelberg, Germany).

[2] = test system: A2C12; experiment: Cell cycle analysis by flow cytometry; assay type: cell-based, mouse; settings: IC50 concentration, 96 h
Protocol: as §1

[3] = test system: GammaA3; experiment: Cell cycle analysis by flow cytometry; assay type: cell-based, mouse; settings: IC50 concentration; for Cells in G1 phase / Cells in G2 phase / Cells in S phase: 96 h
Protocol: as §1

[4] = test system: BetaD5; experiment: Cell cycle analysis by flow cytometry; assay type: cell-based, mouse; settings: IC50 concentration, 96 h
Protocol: as §1

[5] = test system: HepG2; experiment: MTS cell viability assay; assay type: cell-based, human
Protocol: (§2) Three human and eleven murine cancer cell lines were used. The human NSCLC cell line A549 (ACC 107) and the human colorectal carcinoma cell line CaCo2 (ACC 169) were obtained from Deutsche Sammlung von Mikroorganismen und Zellkulturen (DSMZ, Braunschweig, Germany). The human hepatocellular carcinoma cell line HepG2 (HB-8065) was obtained from American Type Culture Collection (Manassas, VA, USA). The 11 murine NSCLC cell lines were established as described recently. Cells were grown in monolayer cultures in DMEM containing 10% foetal calf serum, 4 mmol/l L-glutamine and 2% Penicillin/Streptomycin at 37°C in a humidified atmosphere of 95% air and 5% CO2.
(§3) Cell culture viability was monitored by CellTiter96® AQueous One Solution Cell Proliferation Assay (Promega GmbH, Mannheim, Germany). The cells were seeded in triplicates in 96-well microtitre plates and treated with the dual kinase inhibitors or vehicle (0.2% DMSO). After 24 h or 96 h of treatment the MTS tetrazolium reagent was added to the cells and incubated for 1 h. Absorbance at 490 nm was assayed with a Victor3 Wallac 1420 Multilabel counter (PerkinElmer, Waltham, MA, USA).

[6] = test system: CaCo2; experiment: MTS cell viability assay; assay type: cell-based, human
Protocol: as §2, §3

[7] = test system: A549; experiment: MTS cell viability assay; assay type: cell-based, human
Protocol: as §2, §3

[8] = test system: GammaD12; experiment: MTS cell viability assay; assay type: cell-based, mouse
Protocol: as §2, §3

[9] = test system: A2C12; experiment: MTS cell viability assay; assay type: cell-based, mouse
Protocol: as §2, §3

[10] = test system: GammaA3; experiment: MTS cell viability assay; assay type: cell-based, mouse
Protocol: as §2, §3

[11] = test system: BetaD5; experiment: MTS cell viability assay; assay type: cell-based, mouse
Protocol: as §2, §3

[12] = test system: HepG2; experiment: Cell cycle analysis by flow cytometry; assay type: cell-based, human; settings: IC50 concentration, 96 h
Protocol: as §1

[13] = test system: CaCo2; experiment: Cell cycle analysis by flow cytometry; assay type: cell-based, human; settings: IC50 concentration, 96 h
Protocol: as §1

[14] = test system: A549; experiment: Cell cycle analysis by flow cytometry; assay type: cell-based, human; settings: IC50 concentration, 96 h
Protocol: as §1

[15] = 24 h, read-out: Calculated IC50 after single treatment for 24 h
[16] = 96 h, read-out: Calculated IC50 after daily treatment for 96 h
[17] = MTS, 24 h, read-out: Calculated IC50 after single treatment for 24 h
[18] = MTS, 96 h, read-out: Calculated IC50 after daily treatment for 96 h
[19] = Mus musculus, 24 h, read-out: Calculated IC50 after single treatment for 24 h
[20] = Mus musculus, 96 h, read-out: Calculated IC50 after daily treatment for 96 h
[21] = daily treatment 96 h, vs DMSO 0.2%

Compound	Cells in G1 phase [1] [%]	Cells in G2 phase [1] [%]	Cells in S phase [1] [%]	Cells in G1 phase [2] [%]	Cells in G2 phase [2] [%]	Cells in S phase [2] [%]	IC50 [5, 15] [µM]	IC50 [5, 16] [µM]	IC50 [6, 15] [µM]	IC50 [6, 16] [µM]	IC50 [7, 15] [µM]	IC50 [7, 16] [µM]	IC50 [8, 17] [µM]	IC50 [8, 18] [µM]	IC50 [9, 15] [µM]	IC50 [9, 16] [µM]	IC50 [10, 15] [µM]	IC50 [10, 16] [µM]	IC50 [11, 15] [µM]	IC50 [11, 16] [µM]	other results
CSc1nc(Nc2cccc(F)c2)c2cnn(CC(Cl)c3ccc(F)cc3)c2n1 (stereo not drawn) [Si93]	39.5	14.7	45.8	56.8	14.6	28.6	65.6 ± 2.7	19.1 ± 1.6	65.6 ± 2.7	6.4 ± 0.1	21.5 ± 4.2	6.5 ± 0.2	11.8 ± 0.4	8.8 ± 0.3	16.9 ± 0.9	6.5 ± 0.3	15.6 ± 0.6	7.7 ± 0.4	13.8 ± 2	10.4 ± 0.5	Cells in G1 phase [3]: 76.1%; Cells in G2 phase [3]: 16.6%; Cells in S phase [3]: 7.2%; Cells in G1 phase [4]: 42.4%; Cells in G2 phase [4]: 25.2%; Cells in S phase [4]: 22.1%; Cells in G1 phase [12]: 55%; Cells in G2 phase [12]: 9.6%; Cells in S phase [12]: 35.4%; Cells in G1 phase [13]: 59.3%; Cells in G2 phase [13]: 9.5%; Cells in S phase [13]: 31.1%; Cells in G1 phase [14]: 72.6%; Cells in G2 phase [14]: 5%; Cells in S phase [14]: 22.4%
CSc1nc(NCc2ccccc2)c2cnn(CC(Br)c3ccccc3)c2n1 (stereo not drawn) [Si81]	33.3	8.8	57.9	66.7	10.7	22.6	72.9 ± 6.4	22.6 ± 4.3	72.9 ± 6.4	7.5 ± 0.2	> 100	11.2 ± 1	17.4 ± 2.6	14.1 ± 0.2	30.8 ± 2.5	12.1 ± 2.1	26.8 ± 1.5	> 20	20.6 ± 4	19.5 ± 3.1	Cells in G1 phase [4]: 61.9%; Cells in G2 phase [4]: 22%; Cells in S phase [4]: 16.1%; Cells in G1 phase [12]: 58.8%; Cells in G2 phase [12]: 9.5%; Cells in S phase [12]: 31.7%; Cells in G1 phase [13]: 58.7%; Cells in G2 phase [13]: 6.9%; Cells in S phase [13]: 34.3%; Cells in G1 phase [14]: 62.8%; Cells in G2 phase [14]: 6.3%; Cells in S phase [14]: 30.9%
Cc1nc(Nc2ncc(C(=O)Nc3c(C)cccc3Cl)s2)cc(N2CCN(CCO)CC2)n1 [Dasatinib, reference compound]												5.2 ± 2.2									IC50 ([5]; Homo sapiens, 24 h, read-out: Calculated IC50 after single treatment for 24 h): 26.2 ± 2.8 µM; IC50 ([5]; Homo sapiens, 96 h, read-out: Calculated IC50 after daily treatment for 96 h): 5 ± 0.82 µM; IC50 ([6]; Homo sapiens, Caco-2, 24 h, read-out: Calculated IC50 after single treatment for 24 h): > 100 µM; IC50 ([6]; Homo sapiens, Caco-2, 96 h, read-out: Calculated IC50 after daily treatment for 96 h): 0.44 ± 0.25 µM; IC50 ([7]; Homo sapiens, A549, 24 h, 24 h, read-out: Calculated IC50 after single treatment for 24 h): 39.8 ± 5.8 µM; IC50 ([7]; Homo sapiens, A549, 96 h, 96 h, read-out: Calculated IC50 after daily treatment for 96 h): 5 µM; IC50 ([8]; Mus musculus, 96 h, read-out: IC50 (MTS) after treatment for 96 h): 0.8 µM; IC50 ([8]; Mus musculus, MTS, 24 h, read-out: Calculated IC50 after single treatment for 24 h): 2.6 ± 1 µM; IC50 [9, 19]: 9.8 ± 1.5 µM; IC50 [9, 20]: 10.3 ± 1.6 µM; IC50 [10, 19]: 1.18 ± 0.1 µM; IC50 [10, 20]: 0.32 ± 0.07 µM; IC50 [11, 19]: 5.2 ± 0.6 µM; IC50 [11, 20]: 0.84 ± 0.05 µM
CSc1nc(NCc2ccccc2)c2cnn(CC(Cl)c3ccc(F)cc3)c2n1 (stereo not drawn) [Si65]	33	8.7	58.4	73.4	10.4	16.2	40.3 ± 0.9	9.1 ± 1.7	40.3 ± 0.9	5.7 ± 0.4	22.7 ± 0.6	8.2 ± 0.5	21 ± 1	7.1 ± 0.6	25.9 ± 4.3	8.6 ± 1.3	31.9 ± 1.6	9.9 ± 1.4	22.6 ± 1.9	10.6 ± 0.1	Cells in G1 phase [3]: 68%; Cells in G2 phase [3]: 17.3%; Cells in S phase [3]: 14.6%; Cells in G1 phase [4]: 58.4%; Cells in G2 phase [4]: 24.7%; Cells in S phase [4]: 16.9%; Cells in G1 phase [12]: 62.7%; Cells in G2 phase [12]: 8.5%; Cells in S phase [12]: 28.1%; Cells in G1 phase [14]: 67.2%; Cells in G2 phase [14]: 6.3%; Cells in S phase [14]: 26.6%
CSc1nc(NCc2ccccc2)c2cnn(CC(Cl)c3ccc(Cl)cc3)c2n1 (stereo not drawn) [Si70]	43.7	7.7	48.7	63.3	10.1	26.6	82.1 ± 5.3	> 100	82.1 ± 5.3	7.6 ± 0.3	96 ± 35.1	10.2 ± 0.5	21.6 ± 1.6	7.9 ± 3.4	68.5 ± 16.8	9.2 ± 0.3	40.7 ± 6.2	13.5 ± 1.1	31 ± 5.1	11 ± 0.3	Cells in G1 phase [3]: 89%; Cells in G2 phase [3]: 8.2%; Cells in S phase [3]: 2.8%; Decrease in the S-phase compared to the vehicle treatment [3, 21]: up to 91%; Increase in G0/G1 compared to the vehicle treatment [3, 21]: up to 92%; Cells in G1 phase [4]: 56.6%; Cells in G2 phase [4]: 25.7%; Cells in S phase [4]: 17.7%; Cells in G1 phase [13]: 65.9%; Cells in G2 phase [13]: 6.8%; Cells in S phase [13]: 27.3%; Cells in G1 phase [14]: 77.3%; Cells in G2 phase [14]: 4.1%; Cells in S phase [14]: 18.6%
CCN(CC)c1nc(SC)nc2c1cnn2CC(Cl)c1ccccc1 (stereo not drawn) [Si27]							> 100	16.2 ± 6.3	> 100	> 20	> 100	> 20	> 100	> 20	> 100	> 20	> 100	> 20	> 100	> 20	
